In patent publication US20240197871A1, “COMBINATION OF A CAR T CELL THERAPY AND AN IMMUNOMODULATORY COMPOUND FOR TREATMENT OF LYMPHOMA” (Juno Therapeutics, Inc., priority 2021, published 2024):

What was measured:
[1] = tested on: Granta-519 lymphoma tumor spheroids; experiment: Concentration levels: tumor cell number during re-challenge, concurrent or rescue treatment; format: cell-based
Description: Different concentrations of Compound C were tested for their effects on cytolytic function of CAR T cells following chronic stimulation. CAR T cells were treated with various concentrations of Compound C either during or after chronic stimulation.
Anti-CD19 CAR-expressing T cells, produced as described in Example 1, were chronically stimulated as described in Example 3 (with Compound C present during chronic stimulation), then re-challenged with Granta-519 lymphoma tumor spheroids in the absence of Compound C (concurrent treatment group). In addition, anti-CD19 CAR-expressing T cells were chronically stimulated as described in Example 4 (with Compound C absent during chronic stimulation), then re-challenged with Granta-519 lymphoma tumor spheroids in the presence of Compound C (rescue treatment group). During re-challenge, cytolytic activity was assessed by tumor cell number at various times during co-culture with CAR-T cells.
In both treatment conditions, tumor cell number was reduced compared to control conditions for CAR T cells treated with Compound C at a 0.001 μM concentration. Also in both treatment groups, tumor cell number was higher compared to control conditions for CAR T cells treated with Compound C at 0.01 μM and 0.1 μM concentrations.

Aiolos = biological target: T1, Aiolos (Homo sapiens, UniProt Q96SW2+Q9UKT9); experiment: Aiolos degradation in stimulated anti-CD19 CAR T cells (flow cytometry MFI); format: cell-based
T1 construct: analyzed by flow cytometry to assess intracellular levels of Ikaros and Aiolos in CAR+ T cells; endogenous in cells; host or cells: primary human CD4+ and CD8+ T cells from healthy donors, lentivirally transduced with an anti-CD19 CAR
T1 sequence (Q9UKT9 whole entry): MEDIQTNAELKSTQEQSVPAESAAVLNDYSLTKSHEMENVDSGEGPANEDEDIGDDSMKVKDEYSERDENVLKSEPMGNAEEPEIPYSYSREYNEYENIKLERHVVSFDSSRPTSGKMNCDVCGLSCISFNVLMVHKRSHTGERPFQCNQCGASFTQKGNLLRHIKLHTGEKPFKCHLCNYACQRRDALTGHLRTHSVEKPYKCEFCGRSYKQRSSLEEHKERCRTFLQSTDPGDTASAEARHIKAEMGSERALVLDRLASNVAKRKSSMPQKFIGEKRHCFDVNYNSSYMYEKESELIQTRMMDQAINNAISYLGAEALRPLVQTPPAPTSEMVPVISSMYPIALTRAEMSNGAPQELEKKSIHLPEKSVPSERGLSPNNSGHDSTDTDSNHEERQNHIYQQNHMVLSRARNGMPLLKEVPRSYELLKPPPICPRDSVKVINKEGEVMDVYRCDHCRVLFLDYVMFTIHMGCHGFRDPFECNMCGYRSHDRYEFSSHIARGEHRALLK
T1 sequence (Q96SW2 whole entry): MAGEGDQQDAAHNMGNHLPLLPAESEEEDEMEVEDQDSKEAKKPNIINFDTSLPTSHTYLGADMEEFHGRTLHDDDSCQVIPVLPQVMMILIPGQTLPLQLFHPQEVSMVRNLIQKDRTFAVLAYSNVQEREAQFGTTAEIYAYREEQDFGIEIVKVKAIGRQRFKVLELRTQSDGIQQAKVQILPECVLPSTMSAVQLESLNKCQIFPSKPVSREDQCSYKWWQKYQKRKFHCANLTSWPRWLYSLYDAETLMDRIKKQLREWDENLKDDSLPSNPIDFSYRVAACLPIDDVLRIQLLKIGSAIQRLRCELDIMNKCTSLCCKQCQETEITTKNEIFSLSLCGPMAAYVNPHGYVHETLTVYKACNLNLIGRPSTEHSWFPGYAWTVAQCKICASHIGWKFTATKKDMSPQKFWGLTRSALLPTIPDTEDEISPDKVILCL
T1 sequence (Q16531 whole entry partner): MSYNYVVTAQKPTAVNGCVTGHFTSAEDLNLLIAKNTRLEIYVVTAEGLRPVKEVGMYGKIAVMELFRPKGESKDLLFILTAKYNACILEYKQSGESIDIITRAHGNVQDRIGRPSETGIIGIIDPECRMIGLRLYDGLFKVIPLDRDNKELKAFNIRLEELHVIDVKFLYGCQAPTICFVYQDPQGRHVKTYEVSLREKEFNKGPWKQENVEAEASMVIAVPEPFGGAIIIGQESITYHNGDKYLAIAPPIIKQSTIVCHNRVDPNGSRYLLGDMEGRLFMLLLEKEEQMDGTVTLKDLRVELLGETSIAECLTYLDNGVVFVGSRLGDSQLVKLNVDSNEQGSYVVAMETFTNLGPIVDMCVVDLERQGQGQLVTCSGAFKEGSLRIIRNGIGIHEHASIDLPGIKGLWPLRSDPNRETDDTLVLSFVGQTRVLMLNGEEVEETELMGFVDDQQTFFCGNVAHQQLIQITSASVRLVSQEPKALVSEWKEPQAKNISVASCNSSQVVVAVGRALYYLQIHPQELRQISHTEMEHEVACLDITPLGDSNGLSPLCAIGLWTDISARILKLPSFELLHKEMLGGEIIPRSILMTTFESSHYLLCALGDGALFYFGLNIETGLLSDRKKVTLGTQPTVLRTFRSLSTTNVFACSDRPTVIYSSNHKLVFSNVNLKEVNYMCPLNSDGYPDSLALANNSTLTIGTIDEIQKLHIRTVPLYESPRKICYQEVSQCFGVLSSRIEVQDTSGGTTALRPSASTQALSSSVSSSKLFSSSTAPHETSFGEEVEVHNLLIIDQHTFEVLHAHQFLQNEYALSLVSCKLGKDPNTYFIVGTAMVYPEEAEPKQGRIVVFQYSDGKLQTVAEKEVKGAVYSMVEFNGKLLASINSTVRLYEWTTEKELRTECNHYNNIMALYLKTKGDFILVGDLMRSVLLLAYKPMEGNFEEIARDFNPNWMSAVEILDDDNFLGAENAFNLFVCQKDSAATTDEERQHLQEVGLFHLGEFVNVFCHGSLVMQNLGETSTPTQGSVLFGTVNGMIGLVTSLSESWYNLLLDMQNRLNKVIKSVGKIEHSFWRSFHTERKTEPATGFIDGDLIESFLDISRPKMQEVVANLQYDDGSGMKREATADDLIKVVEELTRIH
From the text: T cell compositions containing anti-CD19 CAR-expressing T cells were generated from leukapheresis samples from five healthy human adult donors by a process that included immunoaffinity-based selection of T cells by separately selecting CD4+ and CD8+ cells from the samples, resulting in two compositions enriched for CD4+ and CD8+ cells, respectively, per donor. Cells of the enriched CD4+ and CD8+ compositions were separately activated with anti-CD3/anti-CD28 beads and subjected to lentiviral transduction with a vector encoding an anti-CD19 CAR. The anti-CD19 CAR contained an anti-CD19 single-chain variable fragment (scFv) derived from a murine antibody (variable region derived from FMC63), an immunoglobulin-derived spacer, a transmembrane domain derived from CD28, a costimulatory region derived from 4-1BB, and a CD3-zeta intracellular signaling domain. The expression construct in the viral vector further contained sequences encoding a surrogate surface marker for CAR expression, which was separated from the CAR-encoding sequence by a T2A ribosome skip sequence. Transduced populations then were separately incubated in the presence of stimulating reagents for cell expansion. Expanded CD4+ and CD8+ cells were formulated and cryopreserved separately and stored.
Prior to use, the cryopreserved CD4+ and CD8+ engineered cell compositions were thawed and combined at approximately a 1:1 CD4:CD8 ratio for each donor. Cells of the combined composition were then stimulated at 37° C. with 5% CO2 for 24 hours with 30 µg/mL of a CAR-specific anti-idiotypic antibody (see, e.g., WO2018/023100).
Following incubation, the stimulated cells were stained with antibodies and analyzed by flow cytometry to assess intracellular levels of Ikaros and Aiolos in CAR+ T cells, as measured by median fluorescence intensity (MFI). MFI values for Ikaros and Aiolos were normalized and calculated as a percentage relative to vehicle control.

[2] = tested on: Granta-519 lymphoma tumor spheroids; experiment: Chronic stimulation with concurrent treatment, re-challenge with tumor spheroids; format: cell-based
Description: To simulate conditions of chronic stimulation, anti-CD19 CAR-expressing T cells, produced as described in Example 1, were incubated with plate-bound CAR-specific anti-idiotypic antibody (see, e.g., WO2018/023100) and incubated at 37° C. for a period of six days. […] For instance, CAR T cells that were re-challenged with CD19+ tumor cells following the six-day stimulation had reduced IFNγ and IL-2 cytokine production (FIG. 3A) and reduced cytolytic function (FIG. 3B) compared to freshly thawed CAR T cells not subjected to the six-day stimulation.
The ability of Compound C to block or reduce this CAR T cell hypofunctionality following chronic stimulation was assessed. To do so, engineered CAR T cells were concurrently treated with Compound C, Compound 2, or a vehicle control during the six-day stimulation. Stimulated CAR T cells were then harvested, washed twice in media, and re-challenged with Granta-519 lymphoma tumor spheroids (that had been transduced with IncuCyte NucLight Red) in the absence of Compound C, after which cytolytic activity was assessed by loss of red fluorescence over time and averaged measurement of tumor spheroid size at various times following co-culture with CAR-T cells. Cytokine production, Ikaros expression, and gene expression of the CAR T Cells also were assessed.
FIGS. 3D and 3E show the volume of tumor spheroids co-cultured with CAR T cells that were stimulated in the presence of Compound C after chronic stimulation. As shown in FIG. 3D and FIG. 3E, cytolytic activity during re-challenge was improved by treatment with Compound C at a 1 nM concentration during stimulation (**** P<0.0001).

anti-CD19 CAR T cells [3] = experiment: Cell cycle phase (EdU incorporation) of stimulated anti-CD19 CAR T cells; format: cell-based, human; conditions: for percentage of cells in G1 phase: P<0.001
Description: (§1) Anti-CD19 CAR-expressing T cell compositions were generated from three different healthy donors as described in Example 1. Prior to use, cryopreserved CD4+ and CD8+ engineered cell compositions were thawed and combined at approximately a 1:1 CD4:CD8 ratio.
(§2) Following incubation, stimulated CAR T cells were harvested, washed twice in media, and assessed.
The cell cycle phases of CAR T cells treated with the compounds during CAR-specific stimulation with the plate-bound anti-idiotypic antibody were determined using EDU incorporation for two hours after three days of stimulation. For EDU incorporation, CAR T cells were labeled using the Click-iT™ EdU Cell Proliferation Kit (Thermo Fisher Scientific), after which the prepared cells were analyzed by flow cytometry. […] Without wishing to be bound by theory, the accumulation of CAR T cells in G1 phase may account for one of the mechanisms by which the compounds can limit onset of exhaustion during chronic stimulation, as shown in Example 3 below.

anti-CD19 CAR T cells [4] = experiment: Viability of anti-CD19 CAR T cells stimulated with anti-idiotypic antibody (live/dead dye); format: cell-based, human; conditions: Day 3 of culture; 3 or 30 μg/mL anti-idiotypic antibody; three donors
Description: as §1, §2
Viability was assessed at Day 3 of culture by flow cytometry using a live/dead cell dye. As shown in FIG. 2A for the three donors (mean±SEM), the compounds had no effect on cell viability when stimulation was carried out either with 3 μg/mL of anti-idiotypic antibody (left panel) or with 30 μg/mL of anti-idiotypic antibody (right panel).

DC50 (Aiolos; anti-CD19 CAR T cells, 24 hours stimulation with anti-idiotypic antibody, concentration reducing MFI to 50%, average of five donors, read-out: Average EC50 Values (95% Confidence Interval), Aiolos): 0.25 nM | intracellular Aiolos expression (MFI relative to vehicle control) (Aiolos; approximately 10^-1 to 10^4 nM, 24 hours): Concentration-dependent decreases | Aiolos expression compared with Compound 2 or Compound 1 (Aiolos; at all compound concentration levels tested): lower
Structure (SMILES): O=C1CC[C@H](N2C(=O)c3cccc(NCc4ccc(CN5CC(N6CCOCC6)C5)cc4F)c3C2=O)C(=O)N1 [Compound C, (S)-2-(2,6-dioxopiperidin-3-yl)-4-((2-fluoro-4-((3-morpholinoazetidin-1-yl)methyl)benzyl)amino)isoindoline-1,3-dione]
tumor cell number compared to control conditions ([1]; concurrent treatment, 0.001 μM): reduced | tumor cell number compared to control conditions ([1]; concurrent treatment, 0.01 μM): higher | tumor cell number compared to control conditions ([1]; concurrent treatment, 0.1 μM): higher | tumor cell number compared to control conditions ([1]; rescue treatment, 0.001 μM): reduced | tumor cell number compared to control conditions ([1]; rescue treatment, 0.01 μM): higher | tumor cell number compared to control conditions ([1]; rescue treatment, 0.1 μM): higher | IFNγ production in supernatant five days after re-challenge ([2]; 1 nM concurrently during chronic stimulation, P<0.0001): improved IFNγ production | cytolytic activity during re-challenge (tumor spheroid volume) ([2]; 1 nM during six-day chronic stimulation (concurrent), P<0.0001): improved | IFNγ production in supernatant five days after re-challenge ([2]; 10 nM during chronic stimulation, P<0.001, lesser extent than 1 nM): increased IFNγ production | tumor size at day 9 of co-culture ([2]; 10 nM during six-day chronic stimulation (concurrent), P<0.05, lesser extent than 1 nM): reduced tumor size | dose with similar effects on percentage of cells in G1 phase, compared to the other compounds tested (anti-CD19 CAR T cells [3]): ten- or hundred-fold lower dose | percentage of cells in G1 phase (anti-CD19 CAR T cells [3]; 1 nM): increased | percentage of cells in G1 phase (anti-CD19 CAR T cells [3]; 10 nM): increased | effect on percentage of cells in G1 phase compared with the other compounds (anti-CD19 CAR T cells [3]; at all doses tested): most effect on the percentage of cells in G1 phase | cell viability (percentage of live CAR T cells) (anti-CD19 CAR T cells [4]): without affecting CAR T cell viability
